Measurements from US20100204202A1, “DRUG FOR ALLEVIATING MOTOR COMPLICATIONS OR PSYCHIATRIC SYMPTOMS OF PARKINSON'S DISEASE” (Asubio Pharma Co., Ltd., priority 2007, published 2010).
Read-outs that look alike come from different tables or passages of the source.

Legend:
[1] = biological target: T1, rat serotonin 1A receptors (Rattus norvegicus, UniProt P19327); experiment: Adenylate cyclase inhibition test via rat serotonin 1A receptors (full agonist-partial agonist judgment test), rat hippocampus membranes; assay type: biochemical; conditions: for inhibition: read-out: maximum inhibitory reaction of adenylate cyclase activity
T1 construct: Each rat was decapitated and the hippocampus was quickly removed; from tissue; host or cells: hippocampus of male Wistar rats
T1 sequence (P19327 1-422): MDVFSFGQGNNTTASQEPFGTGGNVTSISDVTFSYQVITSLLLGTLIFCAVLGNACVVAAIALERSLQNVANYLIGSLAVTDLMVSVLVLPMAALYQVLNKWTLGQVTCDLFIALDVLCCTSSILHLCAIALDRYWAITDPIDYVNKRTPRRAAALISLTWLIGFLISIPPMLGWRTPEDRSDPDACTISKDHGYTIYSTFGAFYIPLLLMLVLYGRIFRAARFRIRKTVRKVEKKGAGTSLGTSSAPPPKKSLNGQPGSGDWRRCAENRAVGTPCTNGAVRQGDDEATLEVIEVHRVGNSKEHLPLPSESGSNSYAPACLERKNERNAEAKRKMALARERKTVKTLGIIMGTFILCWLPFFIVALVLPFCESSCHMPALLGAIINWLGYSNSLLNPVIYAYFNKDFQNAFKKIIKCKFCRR
Procedure: For the test, Wistar male rats supplied by Shimizu Laboratory Supplies were used (9 to 15 weeks old). Each rat was decapitated and the hippocampus was quickly removed. It was homogenized in 10 volumes of buffer (i.e., 25 mM Tris-HCl, 1 mM EGTA, 5 mM EDTA, 5 mM DTT, 300 mM sucrose, 100 KIU/ml aprotinin, pH 7.4). This was then centrifuged at 500×g, 4° C. for 5 minutes, the supernatant was further centrifuged at 39,000×g, 4° C. for 10 minutes, and the residue was used as the rat hippocampus membrane specimen. The rat hippocampus membrane specimen was diluted by a buffer to 20 to 90 μg/mL of protein, then 50 μL of this cell membrane suspension was added to a 200 μL assay buffer containing each test sample (25 mM Tris-HCl, 100 mM NaCl, 2 mM MgCl2. 0.25 mM ATP, 5 mM phosphocreatine, 10 μg/mL creatine phosphokinase, 0.2 mM IBMX, 10 μM GTP, 10 μM forskolin, pH 7.4) and allowed to react at 30° C. for 5 minutes. 0.2N HCl was added in 250 μL to stop the reaction, then the cAMP produced was assayed by the radioimmunoassay method. […] Note that the adenylate cyclase activity was measured using as an indicator the amount of cAMP produced by the same enzyme. The rate of inhibition by the serotonin 1A receptor agonist was found using the amount of production due to forskolin (10 μM) stimulus as 100%.

[2] = test system: Parkinson's disease model rats; experiment: Hyperkinesia of the forelimbs and shortening of rotational behavior duration induced by repeated doses of levodopa; assay type: in vivo, rat
Text: In rats with unilateral nigrostriatal dopamine nerve destruction generally used as Parkinson's disease animal models, it became clear that by administering levodopa by repeated dosage for about 5 weeks, behavior resembling the symptoms of advanced stage Parkinson's disease appeared. That is, in Parkinson's disease model rats prepared in the same way as in Example 4, along with repeated doses of levodopa, abnormal behavior such as involuntary extending of the forelimb or opening or closing of the hand, up-and-down movement of the wrist, choreiform tremor in the forelimb on the opposite side of microinjection of 6-hydroxydopamine was observed (FIG. 3). This abnormal behavior is reported by Steece-Collier et al. (Steece-Collier K. et al., “Embryonic mesencephalic grafts increase levodopa-induced forelimb hyperkinesia in parkinsonian rats”, Movement Disorders, 2003, 18, p. 1442-1454) as hyperkinesia of the forelimbs.
This appears dependent on the period of repeated doses of levodopa and reportedly is similar to clinical dyskinesia. […] Bibbiani et al. (Bibbiani F. et al., “Serotonin 5-HT1A agonist improves motor complications in rodent and primate parkinsonian models”, Neurology, 2001, 57, p. 1829-1834) report that in Parkinson's disease model rats, along with repeated doses of levodopa, a shortening of the rotational behavior duration is observed and that this phenomenon resembles the wearing off phenomenon in clinical studies.
That is, they treated each group by repeated doses of levodopa and repeated dosage of the tested substance for about 2 weeks (Monday to Friday) and observed the hyperkinesia of the forelimbs and rotational behavior after levodopa administration. Note that the SUN N4057 was subcutaneously administered right before levodopa administration, the sarizotan was orally administered about 20 minutes before levodopa dosage in accordance with above-mentioned known reports (Bibbiani F. et al., Neurology, 2001, 57, p. 1829-1834), and the Example Compound 4 of Japanese Patent Publication No. 2005-298402A was subcutaneously administered about 30 minutes before levodopa dosage in accordance with the above-mentioned Japanese Patent Publication No. 2005-298402A. Further, for the solvent, for SUN N4057 and Example Compound 4 of Japanese Patent Publication No. 2005-298402A, physiological saline was used.
In the same way as Example 4, Parkinson's disease model rats were prepared and the rats treated by repeated doses of levodopa (twice a day, Monday to Friday) for 5 weeks and measured for hyperkinesia of the forelimbs and rotational behavior. Further, based on the results of the hyperkinesia of the forelimbs and rotational behavior duration, the rats were assigned to the groups so as to prevent any significant difference between them, then the effects of the tested substances on these behaviors resembling symptoms of advanced stage Parkinson's disease patients were compared and studied. […] Note that compound Ib (0.3, 1 mg/kg) and compound Ic (0.3, 1 mg/kg) were both intraperitoneally administered right before levodopa administration. For the solvent, physiological saline was used.

rats [3] = experiment: Forced swimming method (anti-depressive action); assay type: in vivo, rat; conditions: 10 mg/kg i.p.
Text: For the test, Crl: CD(SD) male rats supplied by Charles River Japan were used (6 weeks old at start of test). For the forced swimming test, the method of the improved type reported by Lucki et al. (Lucki I., “The forced swimming test as a model for core and component behavioral effects of antidepressant drugs”, Behavioural Pharmacology, 1997, 8, p. 523-532; Cryan J. F. et al., “Assessing antidepressant activity in rodents: recent developments and future needs”, TRENDS in Pharmacological Sciences, 2002, 23, p. 238-245) was used. On day 1, each rat was placed in a cylinder filled with water (height 45 cm×diameter 30 cm, water depth 30 cm, water temperature 23° C., water depth set to depth by which back legs and tail of rat will not touch the bottom). The rat was taken out after 15 minutes. At this time, the immobility period (seconds) of minutes 10-15 (5 minutes) was recorded. Based on the results, the rats were assigned to five groups so that there would be no difference among the groups. On day 2, each rat was placed in a cylinder filled with water the same as day 1 and the immobility period (seconds), swimming behavior period (seconds), and climbing behavior period (seconds) of minutes 0-5 (5 minutes) were measured. Note that the immobility period was defined as the minimum extent of movement for the rat to hold its head above the water, the swimming behavior as the swimming behavior circling around the inside of the cylinder in the horizontal direction, and the climbing behavior as the climbing behavior moving the forelimbs in the vertical direction along the cylinder walls to try to climb them. The tested substance was intraperitoneally administered 15 minutes after the end of swimming on day 1, and 4 hours and 30 minutes before swimming on day 2. Further, for the amount of locomotor activity, a measuring system (shape 48.8×48.8×30 cm, vertical 8 fractions, horizontal 8 fractions, for total of 64 fractions, Biomedica) set in a blacked out soundproof box was used to record the amount of locomotor activity of the rats at minutes 0-15 (15 minutes). Note that the dosages and timings of administration of the tested substances were set in the same way as the forced swimming test and the substance were intraperitoneally administered 24 hours, 4 hours, and 30 minutes before measurement of the amount of locomotor activity.

rats [4] = experiment: Amount of locomotor activity; assay type: in vivo, rat; conditions: 10 mg/kg i.p.; minutes 0-5
Text: For the test, Crl: CD(SD) male rats supplied by Charles River Japan were used (6 weeks old at start of test). For the forced swimming test, the method of the improved type reported by Lucki et al. (Lucki I., “The forced swimming test as a model for core and component behavioral effects of antidepressant drugs”, Behavioural Pharmacology, 1997, 8, p. 523-532; Cryan J. F. et al., “Assessing antidepressant activity in rodents: recent developments and future needs”, TRENDS in Pharmacological Sciences, 2002, 23, p. 238-245) was used. On day 1, each rat was placed in a cylinder filled with water (height 45 cm×diameter 30 cm, water depth 30 cm, water temperature 23° C., water depth set to depth by which back legs and tail of rat will not touch the bottom). The rat was taken out after 15 minutes. At this time, the immobility period (seconds) of minutes 10-15 (5 minutes) was recorded. Based on the results, the rats were assigned to five groups so that there would be no difference among the groups. On day 2, each rat was placed in a cylinder filled with water the same as day 1 and the immobility period (seconds), swimming behavior period (seconds), and climbing behavior period (seconds) of minutes 0-5 (5 minutes) were measured. […]

`O=C1c2ccccc2S(=O)(=O)N1CCCCN1CCN(c2ncccn2)CC1` [ipsapirone] gave an IC50 ([1]; forskolin (10 μM) stimulated, rat hippocampus membranes, read-out: IC50 of adenylate cyclase inhibition (for the maximum reaction)) of 0.039 µM and an inhibition ([1]; forskolin (10 μM) stimulus = 100%, rat hippocampus membranes) of 19%.
With `CCCN(CCC)[C@@H]1CCc2cccc(O)c2C1` [8-OH-DPAT, (R)-(+)-8-hydroxy-2-(di-n-propylamino)tetraline] the inhibition [1] was 32%.
In the case of `Cc1ccnc(C2=CCN(CCCCN3C(=O)c4ccccc4OC=C3Cl)CC2)n1.O=C(O)/C=C/C(=O)O` [compound Ic, 3-chloro-4,5-dihydro-4-(4-{4-[(4-methyl)-2-pyrimidinyl]-1,2,3,6-tetrahydropyridin-1-yl}butyl)-1,4-benzoxazepin-5-one fumarate], the “hyperkinesia of the forelimbs” value ([2]; 0.3 mg/kg i.p. repeated 2 weeks, 30 minutes after levodopa dosage) is reported as “significantly inhibited”, the rotational behavior duration ([2]; 1.0 mg/kg i.p. repeated 2 weeks) is reported as “significantly prolonged” and the “hyperkinesia of the forelimbs” value ([2]; 1.0 mg/kg i.p. repeated 2 weeks, 30 minutes and 1 hour after levodopa dosage) is reported as “significantly inhibited”.
`CNCCCN1c2ccccc2CCc2ccccc21` [desipramine] was tested, and the climbing behavior period (rats [3]) was “significant increase”, the immobility period (rats [3]; minutes 0-5 on day 2) was “significant shortening of the immobility period” and the “amount of locomotor activity” value (rats [4]) was “decline”.
With `Cl.O=C1c2ccccc2OC=C(Cl)N1CCCCN1CC=C(c2ncccn2)CC1` [compound Ib, 3-chloro-4,5-dihydro-4-{4-[4-(2-pyrimidinyl)-1,2,3,6-tetrahydropyridin-1-yl]butyl}-1,4-benzoxazepin-5-one hydrochloride] the rotational behavior duration ([2]; 0.3, 1 mg/kg i.p. repeated 2 weeks) was “tended to be prolonged” and the “hyperkinesia of the forelimbs” value ([2]; 0.3, 1 mg/kg i.p. repeated 2 weeks, 30 minutes and 1 hour after levodopa dosage) was “significantly inhibited”.
